# Test results from patent publication US20250176542A1, “Antibacterial Composition” (LG Chem, Ltd., priority 2022, published 2025).
# Assays:
# [1] = Primary thermal decomposition measurement (thermogravimetric analyzer); assay type: physicochemical; details: N2 atmospheric environment, extrapolated onset of first mass reduction section
# Text: The primary thermal decomposition temperature may be defined as an extrapolated intersection point between a starting mass reference line and the tangent line of the maximum slope point in the first mass reduction section of a mass loss curve measured by a thermogravimetric analyzer in an N2 atmospheric environment.
# A thermogravimetric analyzer (TGA2 manufactured by Mettler Toledo) was used in order to perform an experiment on the primary thermal decomposition temperature of the antibacterial compositions of Examples 1 to 13 and Comparative Example 1.
# In the present experiment, the primary thermal decomposition temperature may be defined as an extrapolated intersection point between a starting mass reference line and the tangent line of the maximum slope point in the first mass reduction section of a mass loss curve measured by a thermogravimetric analyzer in an N2 atmospheric environment. In the present disclosure, it was determined that when the primary thermal decomposition temperature of the antibacterial composition has a value higher than the primary thermal decomposition temperature of the material before anion substitution, the heat resistance has increased.
# E. coli bacteria = test: Bacterial proliferation inhibition rate measurement (Method 1); assay type: cell-based; details: 0.04 g in 20 mL nutrient broth inoculated with 3,000±300 CFU/mL, 37° C., 24 hours, absorbance at 600 nm
# Method: After 0.04 g of the antibacterial composition is added to 20 mL of a nutrient broth culture solution inoculated with 3,000±300CFU/mL of bacterial strain, from the culture solution of an experimental group in which the resulting mixture is incubated at 37° C. in a shaking incubator for 24 hours, the absorbance at a wavelength of 600 nm is measured using a UV/Vis spectrophotometer, • the antibacterial composition is not added to 20 mL of a nutrient broth culture solution inoculated with 3,000±300CFU/mL of bacterial strain, from the culture solution of a control in which the nutrient broth culture solution is incubated at 37° C. for 24 hours, the absorbance at a wavelength of 600 nm is measured using a UV/Vis spectrophotometer, and • from the absorbance of the experimental group and the absorbance of the control group, the bacterial proliferation inhibition rate (%) of the test bacteria is calculated using the following Equation 1.
# In the present experiment, the bacterial proliferation inhibition rate was measured according to the following Method 1. In this case, E. coli bacteria were used.
SMILES,Primary thermal decomposition temperature [1] [°C],Bacterial proliferation inhibition rate (E. coli bacteria) [%]
C=Cc1ccc(C[N+](C)(C)CCCCCCCCCCCC)cc1.O=S(=O)([O-])C(F)(F)F [Example 1],369,
C=Cc1ccc(C[N+](C)(C)CCCCCCCCCCCC)cc1.[Cl-] [Comparative Example 1],,96.3
